Experimental data as given in PubChem BioAssay AID1919009 (Molecular Pharmacology Branch, DTP, NCI, 2023).
One block for each molecule: values may come before it.

Test system: K24384-001-R-PDC complex spheroid growth
Test: Anticancer human tumor K24384-001-R-PDC patient-derived pancreatic adenocarcinoma cell line growth inhibition [AhR]
Conditions: for IC50: curve of first compound; for viability, T/C: stronger effect = lower value
Summary of the method: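 Agents were dosed in half-log steps down from roughly clinical Cmax, or from 10 microM where Cmax was unknown, alone and with AhR antagonists. Read-out: percent test/control growth of tumor spheroids containing HUVEC and MSC stromal cells.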

[1] = second compound 0.1 µM, first compound 0.0316 µM
[2] = second compound 0.1 µM, first compound 0.1 µM
[3] = second compound 0.1 µM, first compound 0.316 µM
[4] = second compound 0.1 µM, first compound 1 µM
[5] = second compound 0.1 µM, first compound 3.16 µM
[6] = second compound 0.1 µM, first compound 10 µM
[7] = second compound 0.316 µM, first compound 0.0316 µM
[8] = second compound 0.316 µM, first compound 0.1 µM
[9] = second compound 0.316 µM, first compound 0.316 µM
[10] = second compound 0.316 µM, first compound 1 µM
[11] = second compound 0.316 µM, first compound 3.16 µM
[12] = second compound 0.316 µM, first compound 10 µM
[13] = second compound 1 µM, first compound 0.0316 µM
[14] = second compound 1 µM, first compound 0.1 µM
[15] = second compound 1 µM, first compound 0.316 µM
[16] = second compound 1 µM, first compound 1 µM
[17] = second compound 1 µM, first compound 3.16 µM
[18] = second compound 1 µM, first compound 10 µM
[19] = second compound 3.16 µM, first compound 0.0316 µM
[20] = second compound 3.16 µM, first compound 0.1 µM
[21] = second compound 3.16 µM, first compound 0.316 µM
[22] = second compound 3.16 µM, first compound 1 µM
[23] = second compound 3.16 µM, first compound 3.16 µM
[24] = second compound 3.16 µM, first compound 10 µM
[25] = second compound 10 µM, first compound 0.0316 µM
[26] = second compound 10 µM, first compound 0.1 µM
[27] = second compound 10 µM, first compound 0.316 µM
[28] = second compound 10 µM, first compound 1 µM
[29] = second compound 10 µM, first compound 3.16 µM
[30] = second compound 10 µM, first compound 10 µM
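For viability, T/C in this document: percent of DMSO vehicle-treated spheroid viability set as 100%.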

IC50 (second compound 0.1 µM): > 10000 nM | IC50 (second compound 0.316 µM): > 10000 nM | IC50 (second compound 1 µM): > 10000 nM | IC50 (second compound 3.16 µM): > 10000 nM | IC50 (second compound 10 µM): > 10000 nM
Compound: CC(C)c1c(-c2ccccc2)nc2c(C#N)c[nH]n2c1=O + CC(CO)NC(=O)c1cc(-c2ccc(Cl)cc2)nn(-c2cnn(C)c2)c1=O
viability, T/C [1]: 118% | viability, T/C [2]: 122% | viability, T/C [3]: 76.2% | viability, T/C [4]: 99.7% | viability, T/C [5]: 92.2% | viability, T/C [6]: 80.8% | viability, T/C [7]: 116% | viability, T/C [8]: 107% | viability, T/C [9]: 89.4% | viability, T/C [10]: 96.8% | viability, T/C [11]: 73% | viability, T/C [12]: 78.3% | viability, T/C [13]: 92.7% | viability, T/C [14]: 80% | viability, T/C [15]: 94.2% | viability, T/C [16]: 64.7% | viability, T/C [17]: 72.1% | viability, T/C [18]: 72.8% | viability, T/C [19]: 63.2% | viability, T/C [20]: 75.1% | viability, T/C [21]: 79.8% | viability, T/C [22]: 64% | viability, T/C [23]: 68.7% | viability, T/C [24]: 63.5% | viability, T/C [25]: 77.5% | viability, T/C [26]: 74.4% | viability, T/C [27]: 62.5% | viability, T/C [28]: 60.6% | viability, T/C [29]: 52.3% | viability, T/C [30]: 61.6%

IC50 (second compound 0.1 µM): 115 nM | IC50 (second compound 0.316 µM): 91 nM | IC50 (second compound 1 µM): 94.7 nM | IC50 (second compound 3.16 µM): 54.6 nM | IC50 (second compound 10 µM): 52.5 nM
Compound: CC1COCCN1c1cc(-c2ccnn2C)c2ccnc(-c3ccn[nH]3)c2n1 (stereo not given) + CC(CO)NC(=O)c1cc(-c2ccc(Cl)cc2)nn(-c2cnn(C)c2)c1=O
viability, T/C (second compound 0.1 µM, first compound 0.00316 µM): 105% | viability, T/C (second compound 0.1 µM, first compound 0.01 µM): 93.7% | viability, T/C [1]: 80.8% | viability, T/C [2]: 51.7% | viability, T/C [3]: 33% | viability, T/C [4]: 26.4% | viability, T/C (second compound 0.316 µM, first compound 0.00316 µM): 111% | viability, T/C (second compound 0.316 µM, first compound 0.01 µM): 118% | viability, T/C [7]: 75.5% | viability, T/C [8]: 50.9% | viability, T/C [9]: 32.3% | viability, T/C [10]: 24.3% | viability, T/C (second compound 1 µM, first compound 0.00316 µM): 94% | viability, T/C (second compound 1 µM, first compound 0.01 µM): 121% | viability, T/C [13]: 86.4% | viability, T/C [14]: 49% | viability, T/C [15]: 28% | viability, T/C [16]: 21.3% | viability, T/C (second compound 3.16 µM, first compound 0.00316 µM): 73.1% | viability, T/C (second compound 3.16 µM, first compound 0.01 µM): 74.8% | viability, T/C [19]: 64.2% | viability, T/C [20]: 34.2% | viability, T/C [21]: 23.7% | viability, T/C [22]: 25.2% | viability, T/C (second compound 10 µM, first compound 0.00316 µM): 85.8% | viability, T/C (second compound 10 µM, first compound 0.01 µM): 79.2% | viability, T/C [25]: 60.1% | viability, T/C [26]: 37.7% | viability, T/C [27]: 27.2% | viability, T/C [28]: 28.4%

IC50 (second compound 0.1 µM): 7260 nM | IC50 (second compound 0.316 µM): 3900 nM | IC50 (second compound 1 µM): 2830 nM | IC50 (second compound 3.16 µM): 2920 nM | IC50 (second compound 10 µM): 1480 nM
Compound: COc1ccc([C@@H](O)c2cc(-c3ncnc4cc(N5CCOCC5)ccc34)c(F)cc2Cl)nn1 + CC(CO)NC(=O)c1cc(-c2ccc(Cl)cc2)nn(-c2cnn(C)c2)c1=O
viability, T/C [1]: 90.1% | viability, T/C [2]: 82.7% | viability, T/C [3]: 97.6% | viability, T/C [4]: 75.7% | viability, T/C [5]: 69.2% | viability, T/C [6]: 43% | viability, T/C [7]: 103% | viability, T/C [8]: 99.5% | viability, T/C [9]: 85.2% | viability, T/C [10]: 67.6% | viability, T/C [11]: 55.1% | viability, T/C [12]: 37% | viability, T/C [13]: 86.6% | viability, T/C [14]: 90% | viability, T/C [15]: 81.1% | viability, T/C [16]: 66.3% | viability, T/C [17]: 49% | viability, T/C [18]: 35.8% | viability, T/C [19]: 74.5% | viability, T/C [20]: 69.7% | viability, T/C [21]: 80.4% | viability, T/C [22]: 66% | viability, T/C [23]: 49.2% | viability, T/C [24]: 33.8% | viability, T/C [25]: 71.3% | viability, T/C [26]: 75.2% | viability, T/C [27]: 68.2% | viability, T/C [28]: 52.1% | viability, T/C [29]: 42.5% | viability, T/C [30]: 28.9%

Second part, the molecule before the results:

Compound: CC1COCCN1c1cc(C2(S(C)(=N)=O)CC2)nc(-c2ccnc3[nH]ccc23)n1 (stereo not given) + CC(CO)NC(=O)c1cc(-c2ccc(Cl)cc2)nn(-c2cnn(C)c2)c1=O
IC50 (second compound 0.1 µM): > 10000 nM | IC50 (second compound 0.316 µM): 3120 nM | IC50 (second compound 1 µM): 9450 nM | IC50 (second compound 3.16 µM): 3590 nM | IC50 (second compound 10 µM): > 10000 nM | viability, T/C [1]: 113% | viability, T/C [2]: 128% | viability, T/C [3]: 133% | viability, T/C [4]: 77.7% | viability, T/C [5]: 55.8% | viability, T/C [6]: 42.8% | viability, T/C [7]: 136% | viability, T/C [8]: 133% | viability, T/C [9]: 136% | viability, T/C [10]: 84.2% | viability, T/C [11]: 52.7% | viability, T/C [12]: 46.2% | viability, T/C [13]: 142% | viability, T/C [14]: 139% | viability, T/C [15]: 136% | viability, T/C [16]: 103% | viability, T/C [17]: 66.5% | viability, T/C [18]: 48.6% | viability, T/C [19]: 125% | viability, T/C [20]: 96.8% | viability, T/C [21]: 132% | viability, T/C [22]: 96.4% | viability, T/C [23]: 53.1% | viability, T/C [24]: 40.6% | viability, T/C [25]: 122% | viability, T/C [26]: 125% | viability, T/C [27]: 130% | viability, T/C [28]: 107% | viability, T/C [29]: 64% | viability, T/C [30]: 53.9%

Compound: O=C(C=Cn1cnc(-c2cc(C(F)(F)F)cc(C(F)(F)F)c2)n1)NNc1cnccn1 + CC(CO)NC(=O)c1cc(-c2ccc(Cl)cc2)nn(-c2cnn(C)c2)c1=O
IC50 (second compound 0.1 µM): 280 nM | IC50 (second compound 0.316 µM): 298 nM | IC50 (second compound 1 µM): 246 nM | IC50 (second compound 3.16 µM): 236 nM | IC50 (second compound 10 µM): 212 nM | viability, T/C (second compound 0.1 µM, first compound 0.00949 µM): 107% | viability, T/C (second compound 0.1 µM, first compound 0.03 µM): 108% | viability, T/C (second compound 0.1 µM, first compound 0.0949 µM): 80.1% | viability, T/C (second compound 0.1 µM, first compound 0.3 µM): 48.7% | viability, T/C (second compound 0.1 µM, first compound 0.949 µM): 34.1% | viability, T/C (second compound 0.1 µM, first compound 3 µM): 28.1% | viability, T/C (second compound 0.316 µM, first compound 0.00949 µM): 102% | viability, T/C (second compound 0.316 µM, first compound 0.03 µM): 99.3% | viability, T/C (second compound 0.316 µM, first compound 0.0949 µM): 74.8% | viability, T/C (second compound 0.316 µM, first compound 0.3 µM): 52% | viability, T/C (second compound 0.316 µM, first compound 0.949 µM): 30.5% | viability, T/C (second compound 0.316 µM, first compound 3 µM): 26.6% | viability, T/C (second compound 1 µM, first compound 0.00949 µM): 86.1% | viability, T/C (second compound 1 µM, first compound 0.03 µM): 102% | viability, T/C (second compound 1 µM, first compound 0.0949 µM): 72.1% | viability, T/C (second compound 1 µM, first compound 0.3 µM): 46.5% | viability, T/C (second compound 1 µM, first compound 0.949 µM): 33.4% | viability, T/C (second compound 1 µM, first compound 3 µM): 28.6% | viability, T/C (second compound 3.16 µM, first compound 0.00949 µM): 77.8% | viability, T/C (second compound 3.16 µM, first compound 0.03 µM): 94.3% | viability, T/C (second compound 3.16 µM, first compound 0.0949 µM): 79.6% | viability, T/C (second compound 3.16 µM, first compound 0.3 µM): 41.8% | viability, T/C (second compound 3.16 µM, first compound 0.949 µM): 29.6% | viability, T/C (second compound 3.16 µM, first compound 3 µM): 23.3% | viability, T/C (second compound 10 µM, first compound 0.00949 µM): 76.2% | viability, T/C (second compound 10 µM, first compound 0.03 µM): 82.3% | viability, T/C (second compound 10 µM, first compound 0.0949 µM): 70.7% | viability, T/C (second compound 10 µM, first compound 0.3 µM): 41% | viability, T/C (second compound 10 µM, first compound 0.949 µM): 29.3% | viability, T/C (second compound 10 µM, first compound 3 µM): 27.3%
